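GI50: concentration for 50% inhibition of growth. The concentration for full growth arrest is given as TGI.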
What was measured:
Experiment in all cases: NCI-60 cell line screen, 384-well format
[1] = system: NCI-H226 lung
[2] = system: NCI-H23 lung
[3] = system: NCI-H322M lung
[4] = system: NCI-H460 NSCLC
[5] = system: NCI-H522 lung
[6] = system: NCI/ADR-RES ovarian
[7] = system: OVCAR-3 ovarian
[8] = system: OVCAR-4 ovarian
[9] = system: OVCAR-5 ovarian
[10] = system: OVCAR-8 ovarian
[11] = system: PC-3 prostate
[12] = system: RPMI-8226 leukemia
[13] = system: RXF 393 renal
[14] = system: SF-268 CNS
[15] = system: SF-295 CNS
[16] = system: SF-539 CNS
[17] = system: SK-MEL-28 melanoma
[18] = system: SK-MEL-5 melanoma
[19] = system: SK-OV-3 ovarian
[20] = system: SN12C renal
[21] = system: SNB-19 CNS
[22] = system: SNB-75 CNS
[23] = system: SW-620 colon
[24] = system: T-47D breast
[25] = system: TK-10 renal
[26] = system: U251 glioblastoma
[27] = system: UACC-257 melanoma
[28] = system: UACC-62 melanoma
[29] = system: UO-31 renal

For `NS(=O)(=O)OC[C@H]1C[C@@H](Nc2ccnc3cc(-c4cccc(SC(F)(F)F)c4)nn23)[C@H](O)[C@@H]1O`, the GI50 [1] was less than 10 nM, the TGI [1] was less than 10 nM and the GI50 [2] was 19.3 nM. It also gave a TGI [2] of 51.3 nM, a GI50 [3] of 11.3 nM and a TGI [3] of 24.2 nM. For the same compound, the GI50 [4] was 147 nM, the TGI [4] was 286 nM and the GI50 [5] was less than 10 nM. For the same compound, the TGI [5] was less than 10 nM, the GI50 [6] was 129 nM and the TGI [6] was 260 nM. It also gave a GI50 [7] of less than 10 nM, a TGI [7] of less than 10 nM and a GI50 [8] of 15.9 nM. It also gave a TGI [8] of 29.9 nM, a GI50 [9] of 12.8 nM and a TGI [9] of 34.2 nM. It also gave a GI50 [10] of less than 10 nM, a TGI [10] of 16.5 nM and a GI50 [11] of 17.5 nM. For the same compound, the TGI [11] was 32.4 nM, the GI50 [12] was 202 nM and the TGI [12] was 348 nM. It also gave a GI50 [13] of less than 10 nM, a TGI [13] of 18.4 nM and a GI50 [14] of less than 10 nM. The TGI [14] was less than 10 nM, the GI50 [15] was 48.1 nM and the TGI [15] was 166 nM. The GI50 [16] was less than 10 nM, the TGI [16] was less than 10 nM and the GI50 [17] was less than 10 nM. The TGI [17] was less than 10 nM, the GI50 [18] was less than 10 nM and the TGI [18] was less than 10 nM. It also gave a GI50 [19] of 12.8 nM, a TGI [19] of 25.9 nM and a GI50 [20] of 21.4 nM. For the same compound, the TGI [20] was 43.7 nM, the GI50 [21] was less than 10 nM and the TGI [21] was 20.7 nM. The GI50 [22] was 19 nM, the TGI [22] was 34.4 nM and the GI50 [23] was 14.4 nM. The TGI [23] was 27.8 nM, the GI50 [24] was less than 10 nM and the TGI [24] was 12.4 nM. For the same compound, the GI50 [25] was 27.3 nM, the TGI [25] was 85.3 nM and the GI50 [26] was less than 10 nM. The TGI [26] was less than 10 nM, the GI50 [27] was 14.7 nM and the TGI [27] was 28.6 nM. The GI50 [28] was 17 nM, the TGI [28] was 32.2 nM and the GI50 [29] was 20.5 nM. It also gave a TGI [29] of 42.1 nM.

— PubChem BioAssay (NCI)
